Measurements: PubChem BioAssay (NCI)
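Step 1: Grow cells in 96-well plates. Step 2: Expose to compound for 48 hours at 5 concentrations. Step 3: Interpolate endpoints linearly; if unreached, use highest concentration. The concentration for 50% growth inhibition is given as GI50. TGI: concentration producing complete growth inhibition.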

Assays:
Assay in all cases: NCI-60 cell line screen, 48 h
[1] = test system: SN12C renal
[2] = test system: NCI-H23 lung
[3] = test system: 786-0 renal
[4] = test system: MOLT-4 leukemia
[5] = test system: M14 melanoma
[6] = test system: RPMI-8226 leukemia
[7] = test system: A498 renal
[8] = test system: SNB-19 CNS
[9] = test system: HCT-116 colon
[10] = test system: HL-60(TB) leukemia
[11] = test system: MALME-3M melanoma
[12] = test system: SR leukemia
[13] = test system: HOP-62 NSCLC
[14] = test system: NCI-H226 lung
[15] = test system: CAKI-1 renal
[16] = test system: RXF 393 renal
[17] = test system: COLO 205 colon
[18] = test system: HCC-2998 colon
[19] = test system: EKVX NSCLC
[20] = test system: KM12 colon
[21] = test system: HCT-15 colon
[22] = test system: PC-3 prostate
[23] = test system: CCRF-CEM leukemia
[24] = test system: NCI-H522 lung
[25] = test system: HOP-92 NSCLC
[26] = test system: DU-145 prostate
[27] = test system: UACC-257 melanoma
[28] = test system: MDA-MB-435
[29] = test system: A549 NSCLC
[30] = test system: SK-MEL-5 melanoma
[31] = test system: TK-10 renal
[32] = test system: OVCAR-3 ovarian
[33] = test system: SF-539 CNS
[34] = test system: SF-268 CNS
[35] = test system: NCI/ADR-RES ovarian
[36] = test system: SK-MEL-28 melanoma
[37] = test system: OVCAR-5 ovarian
[38] = test system: BT-549 breast
[39] = test system: NCI-H460 lung
[40] = test system: MDA-MB-231 breast
[41] = test system: ACHN renal
[42] = test system: SNB-75 CNS
[43] = test system: UO-31 renal
[44] = test system: SW-620 colon
[45] = test system: LOX IMVI melanoma
[46] = test system: OVCAR-4 ovarian
[47] = test system: UACC-62 melanoma
[48] = test system: U251 CNS
[49] = test system: SK-MEL-2 melanoma
[50] = test system: HS 578T breast
[51] = test system: K-562 leukemia
[52] = test system: SK-OV-3 ovarian
[53] = test system: IGROV1 ovarian
[54] = test system: OVCAR-8 ovarian
[55] = test system: HT29 colon
[56] = test system: SF-295 CNS
[57] = test system: T-47D breast
[58] = test system: MCF7 breast

C=C(C)[C@@H]1CC[C@]2(C(N)=O)CC[C@]3(C)[C@H](CC[C@@H]4[C@@]5(C)C/C(=C/c6cccnc6)C(=O)C(C)(C)[C@@H]5CC[C@]43C)[C@@H]12
GI50 [1]: 5.88 µM | TGI [1]: > 100 µM | GI50 [2]: 14.7 µM | TGI [2]: > 100 µM | GI50 [3]: 14.7 µM | TGI [3]: > 100 µM | GI50 [4]: 3.14 µM | TGI [4]: > 100 µM | GI50 [5]: 8.05 µM | TGI [5]: > 100 µM | GI50 [6]: 2.44 µM | TGI [6]: 22.1 µM | GI50 [7]: 23.8 µM | TGI [7]: > 100 µM | GI50 [8]: 9.22 µM | TGI [8]: > 100 µM | GI50 [9]: 3.96 µM | TGI [9]: 66.4 µM | GI50 [10]: 3.15 µM | TGI [10]: 13.9 µM | GI50 [11]: 7.54 µM | TGI [11]: 41.7 µM | GI50 [12]: 5.1 µM | TGI [12]: > 100 µM | GI50 [13]: 12.4 µM | TGI [13]: > 100 µM | GI50 [14]: 6.9 µM | TGI [14]: 60.7 µM | GI50 [15]: 2.56 µM | TGI [15]: 21.2 µM | GI50 [16]: 3.41 µM | TGI [16]: 16.4 µM | GI50 [17]: 7.14 µM | TGI [17]: 27.6 µM | GI50 [18]: 9.04 µM | TGI [18]: > 100 µM | GI50 [19]: 4.99 µM | TGI [19]: 67 µM | GI50 [20]: 4.67 µM | TGI [20]: 64.1 µM | GI50 [21]: 4.4 µM | TGI [21]: > 100 µM | GI50 [22]: 2.36 µM | TGI [22]: 25.6 µM | GI50 [23]: 4.48 µM | TGI [23]: > 100 µM | GI50 [24]: 6.77 µM | TGI [24]: 63 µM | GI50 [25]: 3.21 µM | TGI [25]: > 100 µM | GI50 [26]: 8.36 µM | TGI [26]: > 100 µM | GI50 [27]: 7.2 µM | TGI [27]: > 100 µM | GI50 [28]: 5.52 µM | TGI [28]: > 100 µM | GI50 [29]: 3.84 µM | TGI [29]: > 100 µM | GI50 [30]: 5.42 µM | TGI [30]: 17.6 µM | GI50 [31]: 24.7 µM | TGI [31]: > 100 µM | GI50 [32]: 5.91 µM | TGI [32]: 43.8 µM | GI50 [33]: 10.9 µM | TGI [33]: 33.3 µM | GI50 [34]: 7.52 µM | TGI [34]: > 100 µM | GI50 [35]: 7.13 µM | TGI [35]: > 100 µM | GI50 [36]: 8.81 µM | TGI [36]: 33.2 µM | GI50 [37]: 12.7 µM | TGI [37]: 39.7 µM | GI50 [38]: 8.89 µM | TGI [38]: > 100 µM | GI50 [39]: 8.32 µM | TGI [39]: 25.1 µM | GI50 [40]: 15.2 µM | TGI [40]: > 100 µM | GI50 [41]: 4.96 µM | TGI [41]: > 100 µM | GI50 [42]: 8.63 µM | TGI [42]: > 100 µM | GI50 [43]: 3.08 µM | TGI [43]: > 100 µM | GI50 [44]: 8.82 µM | TGI [44]: > 100 µM | GI50 [45]: 5.89 µM | TGI [45]: 18.6 µM | GI50 [46]: 4.28 µM | TGI [46]: > 100 µM | GI50 [47]: 5.97 µM | TGI [47]: 29.9 µM | GI50 [48]: 7.3 µM | TGI [48]: 47.2 µM | GI50 [49]: 12.1 µM | TGI [49]: 39.8 µM | GI50 [50]: 17.9 µM | TGI [50]: > 100 µM | GI50 [51]: 3.75 µM | TGI [51]: > 100 µM | GI50 [52]: 10.6 µM | TGI [52]: > 100 µM | GI50 [53]: 14 µM | TGI [53]: > 100 µM | GI50 [54]: 9.96 µM | TGI [54]: > 100 µM | GI50 [55]: 6.03 µM | TGI [55]: 52.7 µM | GI50 [56]: 3.84 µM | TGI [56]: 42.3 µM | GI50 [57]: 3.99 µM | TGI [57]: > 100 µM | GI50 [58]: 3.49 µM | TGI [58]: > 100 µM
